This note sets out measurements from US20160222014A1, “COMPOUNDS FOR REGULATING FAK AND/OR SRC PATHWAYS” (ASANA BIOSCIENCES, LLC, priority 2013, published 2016).

Structures are written as SMILES.

The IC50 is the concentration that inhibits the measured activity by half. In general, EC50 refers to the concentration giving half of the maximal effect.

In one experiment the target is T1, AURKB (Aurora B) enzyme (Homo sapiens, UniProt Q96GD4).
T1 construct: purchased Invitrogen PVR 130
In words: Aurora B HTRF assay. To be noted: read-out: AuroraB IC50. It is filed as biochemical. The method in brief:
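HTRF kinase assay with 5 nM Aurora B and 50 nM ULight-PLK (Ser137) peptide, with a reagent at 30 μM final; 1 h at rt. Reaction stopped with EDTA, and phospho-peptide detected with 2 nM Eu-anti-P-PLK(Ser137) antibody after 1 h at rt, read as HTRF.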

The next experiment addresses T2, Recombinant Src enzyme (Homo sapiens, UniProt P12931).
T2 construct: purchased Millipore 14-326; host or cells: Sf21 insect cells
As to the kind of experiment: Src HTRF assay. The experiment is classed as biochemical. The method in brief: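 Sf21-expressed recombinant Src at 5 nM final with biotinylated N-terminally tagged Tyk2 peptide substrate at 0.5 μM final; a component freshly made in enzyme assay buffer pH7.4 was used at 10 μM final. Buffer, supplements, compound handling and procedure as in the FAK HTRF assay; dasatinib included.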
Background: In TR-FRET formats the signal depends on donor and acceptor labels being close together.

The next experiment has as its target JAK2 (Homo sapiens, UniProt O60674). As to the kind of experiment: JAK2 biochemical potency. To be noted: read-out: JAK2 HTRF IC50.
For a further experiment, the target named is T3, recombinant human FAK1 (Homo sapiens, UniProt Q05397).
T3 construct: fused on or other part: N-terminal 6xHis tag
T3 sequence (Q05397 422-680 limits assumed): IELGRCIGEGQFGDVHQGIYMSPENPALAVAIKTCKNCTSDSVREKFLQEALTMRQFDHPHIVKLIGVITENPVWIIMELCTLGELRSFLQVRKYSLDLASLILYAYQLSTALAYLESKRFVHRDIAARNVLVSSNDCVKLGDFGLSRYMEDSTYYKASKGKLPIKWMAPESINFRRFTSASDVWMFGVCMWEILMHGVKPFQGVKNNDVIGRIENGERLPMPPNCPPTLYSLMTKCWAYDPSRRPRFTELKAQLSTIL
As to the kind of experiment: FAK1 HTRF assay. The experiment is classed as biochemical. The method in brief:
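His-tagged human FAK1 (residues 692–end, Sf9-expressed), 10 nM final, with 0.5 μM biotinylated gastrin-precursor Tyr87 peptide and a 10 μM final reagent in pH 7.4 buffer, 45 min at rt. Detection used Eu anti-pTyr antibody plus SA-APC (665/620 nm). Compounds top concentration 10 μM; IC50 from % inhibition.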

For experiment [1], the target named is T4, FAK phosphorylated at Y397 in HEK-FAK cell line overexpressing human FL FAK protein (Homo sapiens, UniProt Q05397).
T4 construct: expressed in transfected cells
T4 sequence (Q05397 whole entry): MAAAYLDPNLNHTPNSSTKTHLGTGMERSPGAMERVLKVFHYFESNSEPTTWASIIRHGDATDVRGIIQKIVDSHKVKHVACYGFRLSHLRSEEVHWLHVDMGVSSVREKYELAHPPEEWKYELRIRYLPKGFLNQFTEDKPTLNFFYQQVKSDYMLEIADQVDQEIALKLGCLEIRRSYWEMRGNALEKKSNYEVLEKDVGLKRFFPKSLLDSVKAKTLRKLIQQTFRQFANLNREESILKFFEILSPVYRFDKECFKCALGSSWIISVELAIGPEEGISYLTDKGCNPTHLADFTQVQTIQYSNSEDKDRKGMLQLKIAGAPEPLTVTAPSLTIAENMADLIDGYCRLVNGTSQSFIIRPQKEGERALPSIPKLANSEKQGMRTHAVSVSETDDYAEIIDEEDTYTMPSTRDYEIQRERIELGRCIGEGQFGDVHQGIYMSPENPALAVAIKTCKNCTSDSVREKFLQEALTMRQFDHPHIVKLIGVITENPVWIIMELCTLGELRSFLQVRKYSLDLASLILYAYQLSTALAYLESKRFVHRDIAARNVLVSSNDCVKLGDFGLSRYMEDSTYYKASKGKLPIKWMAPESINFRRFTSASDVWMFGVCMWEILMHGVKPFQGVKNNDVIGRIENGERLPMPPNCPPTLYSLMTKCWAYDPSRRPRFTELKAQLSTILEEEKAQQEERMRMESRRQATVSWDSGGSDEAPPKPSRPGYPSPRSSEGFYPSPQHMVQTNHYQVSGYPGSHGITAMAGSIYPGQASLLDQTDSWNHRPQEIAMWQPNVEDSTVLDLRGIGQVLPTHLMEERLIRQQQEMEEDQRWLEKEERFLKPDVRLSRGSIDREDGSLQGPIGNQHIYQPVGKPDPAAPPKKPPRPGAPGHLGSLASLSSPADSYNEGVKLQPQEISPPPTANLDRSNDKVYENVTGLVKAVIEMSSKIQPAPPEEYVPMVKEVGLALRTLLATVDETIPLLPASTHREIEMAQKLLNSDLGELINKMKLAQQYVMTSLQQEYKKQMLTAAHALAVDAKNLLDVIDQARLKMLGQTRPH
As to the kind of experiment: Cell based assay, Phospho-FAK ELISA. To be noted: HEK stb; read-out: pFAK EC50 (μM) HEK stb. The method in brief:
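Stable HEK293 line overexpressing full-length human FAK, kept under 0.8 mg/mL Zeocin. In lysates, FAK Y397 autophosphorylation was measured by sandwich ELISA: total-FAK capture antibody, biotinylated pY397-specific detection antibody, streptavidin-HRP with TMB substrate.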
On the technique in general: ELISA stands for enzyme-linked immunosorbent assay.

Chain of JAK2 (O60674 whole entry, species assumed): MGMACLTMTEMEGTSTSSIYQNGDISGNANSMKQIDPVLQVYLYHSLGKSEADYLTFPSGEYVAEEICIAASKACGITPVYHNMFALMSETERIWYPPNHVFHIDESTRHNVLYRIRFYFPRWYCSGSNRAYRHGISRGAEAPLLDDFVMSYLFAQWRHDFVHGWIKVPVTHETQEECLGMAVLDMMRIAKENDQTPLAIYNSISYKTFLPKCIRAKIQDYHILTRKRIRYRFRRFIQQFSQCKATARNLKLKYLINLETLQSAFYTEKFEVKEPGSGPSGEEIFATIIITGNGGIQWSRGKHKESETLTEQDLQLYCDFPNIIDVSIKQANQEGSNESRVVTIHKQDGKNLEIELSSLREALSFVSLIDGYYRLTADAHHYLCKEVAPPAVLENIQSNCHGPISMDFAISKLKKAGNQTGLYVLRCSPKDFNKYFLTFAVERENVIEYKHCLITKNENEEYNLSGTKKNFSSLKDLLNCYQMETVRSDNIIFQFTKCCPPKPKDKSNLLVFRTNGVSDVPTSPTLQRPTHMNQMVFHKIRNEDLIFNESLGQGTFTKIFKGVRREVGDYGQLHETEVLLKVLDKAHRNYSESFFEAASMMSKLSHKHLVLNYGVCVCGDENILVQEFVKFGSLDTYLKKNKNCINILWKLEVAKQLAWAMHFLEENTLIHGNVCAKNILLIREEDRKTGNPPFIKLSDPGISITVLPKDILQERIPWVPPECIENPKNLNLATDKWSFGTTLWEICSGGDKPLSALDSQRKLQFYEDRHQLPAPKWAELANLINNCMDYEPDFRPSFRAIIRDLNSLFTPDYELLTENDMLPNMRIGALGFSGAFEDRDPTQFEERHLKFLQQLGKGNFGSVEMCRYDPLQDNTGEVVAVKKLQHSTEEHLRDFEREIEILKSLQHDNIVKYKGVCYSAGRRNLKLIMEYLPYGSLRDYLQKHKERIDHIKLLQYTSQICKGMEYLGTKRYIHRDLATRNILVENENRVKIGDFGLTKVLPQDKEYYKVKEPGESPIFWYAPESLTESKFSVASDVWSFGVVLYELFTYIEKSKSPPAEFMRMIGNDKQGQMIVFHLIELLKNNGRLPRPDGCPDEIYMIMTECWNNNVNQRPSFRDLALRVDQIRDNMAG
T2 sequence (P12931 whole entry): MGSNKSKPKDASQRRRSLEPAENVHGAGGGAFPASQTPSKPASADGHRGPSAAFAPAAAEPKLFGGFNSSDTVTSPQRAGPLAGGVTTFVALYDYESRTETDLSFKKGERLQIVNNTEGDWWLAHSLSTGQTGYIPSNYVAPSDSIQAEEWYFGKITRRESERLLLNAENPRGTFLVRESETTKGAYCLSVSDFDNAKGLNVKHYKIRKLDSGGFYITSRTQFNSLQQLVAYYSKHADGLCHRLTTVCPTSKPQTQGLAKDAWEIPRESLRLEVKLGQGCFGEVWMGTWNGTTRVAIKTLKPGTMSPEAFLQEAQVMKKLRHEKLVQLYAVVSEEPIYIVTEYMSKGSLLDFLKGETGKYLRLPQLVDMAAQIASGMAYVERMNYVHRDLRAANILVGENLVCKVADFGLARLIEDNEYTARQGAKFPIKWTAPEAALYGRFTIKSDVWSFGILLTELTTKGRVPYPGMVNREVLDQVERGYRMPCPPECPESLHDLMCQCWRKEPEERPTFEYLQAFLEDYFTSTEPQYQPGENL
T1 sequence (Q96GD4 whole entry): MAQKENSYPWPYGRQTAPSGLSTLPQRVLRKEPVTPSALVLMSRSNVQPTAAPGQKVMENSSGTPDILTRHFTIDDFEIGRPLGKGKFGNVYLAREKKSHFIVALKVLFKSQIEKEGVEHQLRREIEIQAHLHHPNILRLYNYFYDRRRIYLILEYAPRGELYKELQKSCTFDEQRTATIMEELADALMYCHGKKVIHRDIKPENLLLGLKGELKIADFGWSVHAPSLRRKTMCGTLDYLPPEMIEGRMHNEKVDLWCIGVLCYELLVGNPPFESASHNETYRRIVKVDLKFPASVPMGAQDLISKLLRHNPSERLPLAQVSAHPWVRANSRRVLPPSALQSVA

Regarding `CN(c1ncccc1Cn1ccc2cnc(Nc3ccc(C4=CCNCC4)cc3)nc21)S(C)(=O)=O` [Example 206], the IC50 on AURKB (Aurora B) enzyme, on Recombinant Src enzyme and on JAK2 was less than 20 nM throughout.
As to `CN(c1ccccc1Cn1ccc2cnc(Nc3ccc(N4CCOCC4)cc3)nc21)S(C)(=O)=O` [Example 111], the IC50 at recombinant human FAK1 and on JAK2 was less than 20 nM each time. Besides, in experiment [1], the EC50 was more than 1 µM.
With `CC(=O)Nc1cccc(Nc2cc3c(ccn3S(=O)(=O)c3cccc(OC(F)(F)F)c3)cn2)c1` [Example 55], the IC50 on AURKB (Aurora B) enzyme, on Recombinant Src enzyme and at JAK2 was more than 1000 nM each time.
With `C[C@H]1CNCCN1c1ccc(Nc2ncc3ccn(Cc4cccnc4N(C)S(C)(=O)=O)c3n2)cc1` [Example 320], the half-maximal effective concentration (EC50) in experiment [1] is more than 1 µM. Further, at JAK2, the IC50 was less than 20 nM.
For `CC(=O)Nc1ccc(Nc2cc3c(ccn3S(=O)(=O)c3cccc(OC(F)(F)F)c3)cn2)cc1` [Example 54], the IC50 at Recombinant Src enzyme and at JAK2 was more than 1000 nM throughout.
Turning to `CC(=O)Nc1ccc(Nc2cc3c(cn2)c(C)nn3Cc2ccccc2OC(F)F)cc1` [Example 81], the IC50 at Recombinant Src enzyme, on recombinant human FAK1 and on JAK2 was more than 1000 nM each time.
Regarding `Cc1cc(Nc2ncc3ccn(Cc4cccnc4N(C)S(C)(=O)=O)c3n2)ccc1N1CCNCC1` [Example 197], the concentration for half-maximal inhibition (IC50) at AURKB (Aurora B) enzyme, at Recombinant Src enzyme and at JAK2 was less than 20 nM throughout.
As to `CN(c1ccccc1Cn1ccc2cnc(Nc3ccc(OC4CNC4)cc3)nc21)S(C)(=O)=O` [Example 515], in experiment [1], the EC50 is more than 1 µM. Also, the IC50 at JAK2 is less than 20 nM.
On to `CN(c1ccccc1Cn1ccc2cnc(Nc3ccc(N4CCNCC4)cc3)nc21)S(C)(=O)=O` [Example 214], for which the IC50 on Recombinant Src enzyme, at recombinant human FAK1 and on JAK2 was less than 20 nM each time.
As for `COc1cc(N2CCN(CCO)CC2)ccc1Nc1ncc2ccn(S(=O)(=O)c3cccc4cccnc34)c2n1` [Example 347], the 50% inhibitory concentration (IC50) was more than 1000 nM on Recombinant Src enzyme, less than 20 nM on recombinant human FAK1 and more than 1000 nM on JAK2.
`COc1cc(N2CCNCC2)ccc1Nc1ncc2ccn(S(=O)(=O)c3cccc4cccnc34)c2n1` [Example 327]: the IC50 at AURKB (Aurora B) enzyme is less than 20 nM; on Recombinant Src enzyme, more than 1000 nM; on recombinant human FAK1, less than 20 nM; on JAK2, more than 1000 nM.
Take `N#Cc1ccccc1S(=O)(=O)n1ncc2cnc(Nc3ccc4c(c3)CCC(=O)N4)nc21` [Example 220]: the IC50 on AURKB (Aurora B) enzyme, on Recombinant Src enzyme and at JAK2 was less than 20 nM each time.
Regarding `Cc1nn(Cc2ccccc2OC(F)F)c2cc(Nc3ccc4c(c3)CCC(=O)N4)ncc12` [Example 80], the IC50 on AURKB (Aurora B) enzyme, on Recombinant Src enzyme and at JAK2 was more than 1000 nM in each case.
Turning to `COc1cc(N2CCNCC2)ccc1Nc1ncc2c(n1)N(S(=O)(=O)c1cccc3cccnc13)CC2(C)C` [Example 446], the half-maximal inhibitory concentration (IC50) was more than 1000 nM at AURKB (Aurora B) enzyme, more than 1000 nM at Recombinant Src enzyme, less than 20 nM at recombinant human FAK1 and more than 1000 nM at JAK2.
`C[C@H]1CN(c2ccc(Nc3ncc4ccn(Cc5ccccc5N(C)S(C)(=O)=O)c4n3)cc2)CCN1` [Example 467]: the IC50 on AURKB (Aurora B) enzyme, at recombinant human FAK1 and at JAK2 was less than 20 nM each time.
In the case of `N#Cc1ccccc1S(=O)(=O)n1cc(F)c2cnc(Nc3ccc(N4CCNCC4)cc3)nc21` [Example 319], the IC50 on AURKB (Aurora B) enzyme, at recombinant human FAK1 and on JAK2 was less than 20 nM in each case.
As to `CC(=O)Nc1cccc(Nc2cc3c(ccn3S(=O)(=O)c3ccccc3OC(F)(F)F)cn2)c1` [Example 58], the IC50 on AURKB (Aurora B) enzyme, on Recombinant Src enzyme and at JAK2 was more than 1000 nM in each case.
Turning to `CN(C)C1CCN(c2ccc(Nc3ncc4ccn(Cc5ccccc5N(C)S(C)(=O)=O)c4n3)cc2)CC1` [Example 468], the IC50 on AURKB (Aurora B) enzyme, on recombinant human FAK1 and on JAK2 was less than 20 nM throughout.
In the case of `O=S(=O)(c1cccc2cccnc12)n1ccc2cnc(Nc3ccc(CN4CCC(F)(F)CC4)cc3)nc21` [Example 248], the IC50 on AURKB (Aurora B) enzyme, at recombinant human FAK1 and at JAK2 was less than 20 nM throughout.
In the case of `CN(c1ncccc1Cn1ccc2cnc(Nc3ccc4c(c3)CC(=O)N4)nc21)S(C)(=O)=O` [Example 304], the IC50 at AURKB (Aurora B) enzyme, at recombinant human FAK1 and at JAK2 was less than 20 nM each time.
Consider `O=c1[nH]c2ccc(Nc3ncc4ccn(S(=O)(=O)c5ccccc5OC(F)F)c4n3)cc2[nH]1` [Example 180], for which the IC50 on AURKB (Aurora B) enzyme, at recombinant human FAK1 and at JAK2 was less than 20 nM each time.
In the case of `COc1cc(N2CCNCC2)ccc1Nc1ncc2ccn(S(=O)(=O)c3ccccc3C#N)c2n1` [Example 336], the IC50 on Recombinant Src enzyme was more than 1000 nM; on recombinant human FAK1, less than 20 nM; at JAK2 it was more than 1000 nM.
With `CC(=O)Nc1ccc(Nc2cc3c(cn2)cnn3Cc2cccnc2N(C)S(C)(=O)=O)cc1` [Example 66], the IC50 on AURKB (Aurora B) enzyme, on Recombinant Src enzyme and at JAK2 was more than 1000 nM throughout.
In the case of `COc1cc(N2CCNCC2)ccc1Nc1cc2c(ccn2S(=O)(=O)c2ccccc2C#N)cn1` [Example 348], the concentration for half-maximal inhibition (IC50) at Recombinant Src enzyme was more than 1000 nM; at recombinant human FAK1, less than 20 nM; on JAK2 it was more than 1000 nM.
For the molecule `O=S(=O)(c1ccccc1OC(F)(F)F)n1ccc2cnc(Nc3ccc(N4CCOCC4)cc3)cc21` [Example 113], the IC50 is less than 20 nM at AURKB (Aurora B) enzyme, more than 1000 nM on Recombinant Src enzyme and more than 1000 nM on JAK2.
For `CN(c1ncccc1Cn1ccc2cnc(Nc3ccc4c(c3)CCC(=O)N4)nc21)S(C)(=O)=O` [Example 5], the half-inhibitory concentration (IC50) at AURKB (Aurora B) enzyme, on Recombinant Src enzyme, at recombinant human FAK1 and at JAK2 was less than 20 nM each time.
Regarding `CC(=O)Nc1cccc(Nc2cc3c(cn2)c(C)nn3Cc2ccccc2OC(F)F)c1` [Example 78], the IC50 at Recombinant Src enzyme, at recombinant human FAK1 and on JAK2 was more than 1000 nM throughout.
As for `COc1cc(N2CCNCC2)ccc1Nc1ncc2ccn(Cc3cccnc3N(C)S(C)(=O)=O)c2n1` [Example 337], the half-inhibitory concentration (IC50) at Recombinant Src enzyme was more than 1000 nM; on recombinant human FAK1, less than 20 nM; on JAK2, more than 1000 nM.
Regarding `O=S(=O)(c1cccc2cccnc12)n1ccc2cnc(Nc3ccc(N4CC5CC4CN5)cc3)cc21` (centres unmarked) [Example 329], the IC50 at AURKB (Aurora B) enzyme was less than 20 nM; on Recombinant Src enzyme it was more than 1000 nM; on recombinant human FAK1, less than 20 nM; on JAK2, more than 1000 nM.
As for `C[C@@H]1CN(c2ccc(Nc3ncc4ccn(S(=O)(=O)c5cccc6cccnc56)c4n3)cc2)CCN1` [Example 213], the IC50 on AURKB (Aurora B) enzyme, on Recombinant Src enzyme, at recombinant human FAK1 and on JAK2 was less than 20 nM throughout.
On to `CN(C)S(=O)(=O)c1ccccc1Cn1ncc2cnc(Nc3ccc(N4CCNCC4)cc3)cc21` [Example 208], for which the EC50 in experiment [1] was more than 1 µM. Further, the IC50 on JAK2 was less than 20 nM.
As to `O=S(=O)(c1cccc2cccnc12)n1ccc2cnc(Nc3ccc(N4CCNCC4)cc3)nc21` [Example 193], the half-maximal inhibitory concentration (IC50) at AURKB (Aurora B) enzyme, on recombinant human FAK1 and on JAK2 was less than 20 nM each time.
Consider `O=S(=O)(c1cccc2cccnc12)n1ccc2cnc(Nc3ccc(N4CCN(CCO)CC4)cc3)nc21` [Example 311], for which the IC50 at AURKB (Aurora B) enzyme, at Recombinant Src enzyme, at recombinant human FAK1 and at JAK2 was less than 20 nM in each case.
On to `Cc1cc(S(=O)(=O)n2ccc3cnc(Nc4ccc(N5CCNCC5)cc4)nc32)c2ncccc2c1` [Example 357], for which the IC50 on AURKB (Aurora B) enzyme, at recombinant human FAK1 and on JAK2 was less than 20 nM each time.
As for `COc1cc(Nc2cc3c(ccn3S(=O)(=O)c3cccc4cccnc34)cn2)ccc1N1CCNCC1` [Example 328], the IC50 on AURKB (Aurora B) enzyme is less than 20 nM; on recombinant human FAK1, less than 20 nM; on JAK2 it was more than 1000 nM.
As for `COc1cc(N2CCC(O)CC2)ccc1Nc1ncc2ccn(S(=O)(=O)c3cccc4cccnc34)c2n1` [Example 356], the IC50 was less than 20 nM on AURKB (Aurora B) enzyme, more than 1000 nM on Recombinant Src enzyme, less than 20 nM at recombinant human FAK1 and more than 1000 nM at JAK2.
With `O=c1[nH]c2ccc(Nc3cc4c(ccn4S(=O)(=O)c4ccccc4OC(F)(F)F)cn3)cc2[nH]1` [Example 118], the IC50 on AURKB (Aurora B) enzyme was less than 20 nM; at Recombinant Src enzyme it was more than 1000 nM; at recombinant human FAK1, less than 20 nM; at JAK2, more than 1000 nM.
In the case of `O=S(=O)(c1cccc2cccnc12)n1ccc2cnc(Nc3ccc(N4CCNCC4)c(F)c3)nc21` [Example 194], the IC50 at AURKB (Aurora B) enzyme, on Recombinant Src enzyme, on recombinant human FAK1 and on JAK2 was less than 20 nM in each case.
